Reference: patent US20240308998A1, “PYRROLOPYRIDONE DERIVATIVES USEFUL IN THE TREATMENT OF CANCER” (Tay Therapeutics Limited, priority 2021, published 2024)
Structures can show the parent of a compound that is named as a salt.

Legend:
[1] = target: T1, BRD4 BD1 (Homo sapiens, UniProt O60885); experiment: NanoBRET bromodomain assay, BRD4 BD1; type: cell-based; details: HEK293 cells transfected with NanoLuc-BRD4-BD1
T1 construct: HEK293 cells were transfected using NanoLuc-BRD4-BD1 or NanoLuc-BRD4-BD2 fusion vectors; host or cells: HEK293
Method: (§1) HEK293 cells were transfected using NanoLuc-BRD4-BD1 or NanoLuc-BRD4-BD2 fusion vectors and incubated at 37° C. in an atmosphere of 5% CO2 for 20-24 hours. The transfected cells were then dispensed into 96-well plates using 90 μl cell suspension per well containing 2×10^5 cells/ml in Opti-MEM and 1x final concentration of tracer. 90 μl per well of cell suspension without tracer was also dispensed into at least 3 wells as “No tracer control samples” for background correction. Serially diluted test compounds were prepared at 1000× concentration in DMSO and further diluted to 10× concentration in Opti-MEM. 10 μl per well of the serially diluted 10× test compound was added to the 96-well plates containing cells with 1x tracer. Plates were then incubated at 37° C.+5% C02 incubator for 2 hours. Immediately prior to BRET measurements, a 3x solution consisting of 1:166 dilution of Nano-Glo® Substrate plus a 1:500 dilution of Extracellular NanoLuc Inhibitor in Opti-MEM was prepared and 50 μl per well was added to the cells. Donor emission (450 nm) and acceptor emission (610 nm) were measured using PHERAstar (BMG LabTech). For data analysis, the raw BRET ratio was generated and converted to milliBRET units with background correction using the formula: [(Acceptorsample/Donorsample)−(Acceptorno tracer control/Donorno tracer control)]×1000. The mBU data was plotted as a function of compound concentration and IC50s for BRET assay were determined by nonlinear regression analysis of concentration response curves using the GraphPad Prism software.

[2] = target: T2, BRD4 BD2 (Homo sapiens, UniProt O60885); experiment: NanoBRET bromodomain assay, BRD4 BD2; type: cell-based; details: for Fold selectivity BRD4 BD1/BD2: IC50 BD1/IC50 BD2; for IC50: NanoBRET, HEK293 cells transfected with NanoLuc-BRD4-BD2
T2 construct: HEK293 cells were transfected using NanoLuc-BRD4-BD1 or NanoLuc-BRD4-BD2 fusion vectors; host or cells: HEK293
Method: as §1
Fold Selectivity Calculated (IC50 BD1/IC50 BD2).

[3] = Intrinsic clearance in rat liver microsomes; type: in vitro ADME; details: pH 7.4, NADPH, read-out: Rat Microsomal Stability T½
Method: A 50 mM stock solution (in DMSO) was prepared for the compound. From the stock solution, a working solution of 0.5 mM was prepared by diluting the compound in DMSO. This concentration of working solution was prepared considering a final concentration of 1 uM with 0.1% DMSO. The compound (1 uL of working solution) was spiked in PBS with pH 7.4 (22 uL) at a concentration of 1 uM. Subsequently, 110 uL of 10 mM NADPH was added (as a co-factor). The sample was incubated at 37° C. for 15 min. Following this, pre-warmed rat liver microsomes (27.5 uL; final protein conc. 0.5 mg/mL) were added. The samples were then incubated at 37° C. Aliquots of samples were withdrawn at 0, 5, 15, 30, 45 and 60 min. The reaction was stopped by using chilled acetonitrile containing internal standard. The samples were centrifuged and the supernatants analysed by LC-MS/MS. The percent compound remaining at each time point was calculated with respect to that of the 0 min sample. The data were then analysed to calculate half-life. Note that control samples were run without NADPH and blank samples were prepared using DMSO without the test Compound.

Structure (SMILES)	IC50 [1]	Fold selectivity BRD4 BD1/BD2 [2]	IC50 [2]	half-life at 1 uM [3]
Cc1cccc(C)c1Oc1cn(C)c(=O)cc1-c1cn(C)c(=O)c2[nH]c(-c3ccc(C(F)(F)F)cc3)cc12 [Example 28, 4-(5-(2,6-dimethylphenoxy)-1-methyl-2-oxo-1,2-dihydropyridin-4-yl)-6-methyl-2-(4-(trifluoromethyl)phenyl)-1,6-dihydro-7H-pyrrolo[2,3-c] pyridin-7-one]	> 1000 nM	xx (Fold >50 and ≤200)	50 to 200 nM	> 1 h
Cc1cccc(C)c1Oc1cn(C)c(=O)cc1-c1cn(C)c(=O)c2[nH]c(-c3ccc(C(=O)O)cc3)cc12 [Example 35, 4-(4-(5-(2,6-dimethylphenoxy)-1-methyl-2-oxo-1,2-dihydropyridin-4-yl)-6-methyl-7-oxo-6,7-dihydro-1H-pyrrolo[2,3-c]pyridin-2-yl) benzoic acid]	> 1000 nM	— (Fold ≥0 and ≤2)	> 1000 nM	> 1 h
Cc1ccc(C)c(-c2cc3c(-c4cc(=O)n(C)cc4Oc4c(C)cccc4C)cn(C)c(=O)c3[nH]2)c1 [Example 19, 4-(5-(2,6-dimethylphenoxy)-1-methyl-2-oxo-1,2-dihydropyridin-4-yl)-2-(2,5-dimethylphenyl)-6-methyl-1,6-dihydro-7H-pyrrolo[2,3-c] pyridin-7-one]	> 1000 nM	x (Fold >2 and ≤50)	200 to 1000 nM	> 1 h
Cc1ccc(Cl)cc1-c1cc2c(-c3cc(=O)n(C)cc3Oc3c(C)cccc3C)cn(C)c(=O)c2[nH]1 [Example 20, 2-(5-chloro-2-methylphenyl)-4-(5-(2,6-dimethylphenoxy)-1-methyl-2-oxo-1,2-dihydropyridin-4-yl)-6-methyl-1,6-dihydro-7H-pyrrolo[2,3-c] pyridin-7-one]	> 1000 nM	x (Fold >2 and ≤50)	200 to 1000 nM	> 1 h
Cc1cccc(C)c1Oc1cn(C)c(=O)cc1-c1cn(C)c(=O)c2[nH]c(-c3ccn[nH]3)cc12 [Example 32, 4-(5-(2,6-dimethylphenoxy)-1-methyl-2-oxo-1,2-dihydropyridin-4-yl)-6-methyl-2-(1H-pyrazol-5-yl)-1,6-dihydro-7H-pyrrolo [2,3-c] pyridin-7-one]	> 1000 nM	xx (Fold >50 and ≤200)	50 to 200 nM	> 1 h
Cc1cccc(C)c1Oc1cn(C)c(=O)cc1-c1cn(C)c(=O)c2[nH]c(-c3ccc(C#N)cc3)cc12 [Example 24, 4-(4-(5-(2,6-dimethylphenoxy)-1-methyl-2-oxo-1,2-dihydropyridin-4-yl)-6-methyl-7-oxo-6,7-dihydro-1H-pyrrolo[2,3-c]pyridin-2-yl) benzonitrile]	> 1000 nM	x (Fold >2 and ≤50)	200 to 1000 nM	> 1 h
Cc1ccccc1-c1cc2c(-c3cc(=O)n(C)cc3Oc3c(C)cccc3C)cn(C)c(=O)c2[nH]1 [Example 15, 4-(5-(2,6-dimethylphenoxy)-1-methyl-2-oxo-1,2-dihydropyridin-4-yl)-6-methyl-2-(o-tolyl)-1,6-dihydro-7H-pyrrolo[2,3-c] pyridin-7-one]	> 1000 nM	x (Fold >2 and ≤50)	200 to 1000 nM	0.383 h

Continued, values first:

IC50 [1]	Fold selectivity BRD4 BD1/BD2 [2]	IC50 [2]	half-life at 1 uM [3]	Structure (SMILES)
500 to 1000 nM	xx (Fold >50 and ≤200)	≤ 50 nM	> 1 h	Cc1cccc(C)c1Oc1cn(C)c(=O)cc1-c1cn(C)c(=O)c2[nH]c(-c3cn(C)nc3C)cc12 [Example 12, 2-(1,3-dimethyl-1H-pyrazol-4-yl)-4-(5-(2,6-dimethylphenoxy)-1-methyl-2-oxo-1,2-dihydropyridin-4-yl)-6-methyl-1,6-dihydro-7H-pyrrolo[2,3-c] pyridin-7-one]
> 1000 nM	x (Fold >2 and ≤50)	200 to 1000 nM	> 1 h	Cc1cccc(C)c1Oc1cn(C)c(=O)cc1-c1cn(C)c(=O)c2[nH]c(-c3cccnc3)cc12 [Example 9, 4-(5-(2,6-dimethylphenoxy)-1-methyl-2-oxo-1,2-dihydropyridin-4-yl)-6-methyl-2-(pyridin-3-yi)-1,6-dihydro-7H-pyrrolo[2,3-c] pyridin-7-one.TFA]
> 1000 nM	— (Fold ≥0 and ≤2)	> 1000 nM	> 1 h	Cc1ccc(C(F)(F)F)cc1-c1cc2c(-c3cc(=O)n(C)cc3Oc3c(C)cccc3C)cn(C)c(=O)c2[nH]1 [Example 21, 4-(5-(2,6-dimethylphenoxy)-1-methyl-2-oxo-1,2-dihydropyridin-4-yl)-6-methyl-2-(2-methyl-5-(trifluoromethyl)phenyl)-1,6-dihydro-7H-pyrrolo[2,3-c] pyridin-7-one]
> 1000 nM	xx (Fold >50 and ≤200)	≤ 50 nM	> 1 h	Cc1cccc(C)c1Oc1cn(C)c(=O)cc1-c1cn(C)c(=O)c2[nH]c(-c3cnn(C)c3C)cc12 [Example 36, 2-(1,5-dimethyl-1H-pyrazol-4-yl)-4-(5-(2,6-dimethylphenoxy)-1-methyl-2-oxo-1,2-dihydropyridin-4-yl)-6-methyl-1,6-dihydro-7H-pyrrolo[2,3-c] pyridin-7-one]
> 1000 nM	x (Fold >2 and ≤50)	> 1000 nM	> 1 h	Cc1cccc(C)c1Oc1cn(C)c(=O)cc1-c1cn(C)c(=O)c2[nH]c(-c3cnnn3C)cc12 [Example 33, 4-(5-(2,6-dimethylphenoxy)-1-methyl-2-oxo-1,2-dihydropyridin-4-yl)-6-methyl-2-(1-methyl-1H-1,2,3-triazol-5-yl)-1,6-dihydro-7H-pyrrolo[2,3-c] pyridin-7-one]
> 1000 nM	xx (Fold >50 and ≤200)	50 to 200 nM	> 1 h	Cc1cccc(C)c1Oc1cn(C)c(=O)cc1-c1cn(C)c(=O)c2[nH]c(-c3cncnc3)cc12 [Example 22, 4-(5-(2,6-dimethylphenoxy)-1-methyl-2-oxo-1,2-dihydropyridin-4-yl)-6-methyl-2-(pyrimidin-5-yl)-1,6-dihydro-7H-pyrrolo[2,3-c] pyridin-7-one]
> 1000 nM	xxx (Fold >200)	≤ 50 nM	0.733 h	Cc1cccc(C)c1Oc1cn(C)c(=O)cc1-c1cn(C)c(=O)c2[nH]c(-c3ccncc3)cc12 [Example 10, 4-(5-(2,6-dimethylphenoxy)-1-methyl-2-oxo-1,2-dihydropyridin-4-yl)-6-methyl-2-(pyridin-4-yl)-1,6-dihydro-7H-pyrrolo[2,3-c] pyridin-7-one]
> 1000 nM	xxx (Fold >200)	≤ 50 nM	> 1 h	Cc1cccc(C)c1Oc1cn(C)c(=O)cc1-c1cn(C)c(=O)c2[nH]c(-c3ccn(C)c3)cc12 [Example 13, 4-(5-(2,6-dimethylphenoxy)-1-methyl-2-oxo-1,2-dihydropyridin-4-yl)-6-methyl-2-(1-methyl-1H-pyrrol-3-yl)-1,6-dihydro-7H-pyrrolo[2,3-c] pyridin-7-one]
50 to 500 nM	xx (Fold >50 and ≤200)	≤ 50 nM	> 1 h	Cc1ncc(-c2cc3c(-c4cc(=O)n(C)cc4Oc4c(C)cccc4C)cn(C)c(=O)c3[nH]2)s1 [Example 31, 4-(5-(2,6-dimethylphenoxy)-1-methyl-2-oxo-1,2-dihydropyridin-4-yl)-6-methyl-2-(2-methylthiazol-5-yl)-1,6-dihydro-7H-pyrrolo[2,3-c] pyridin-7-one]
500 to 1000 nM	xxx (Fold >200)	≤ 50 nM	> 1 h	Cc1cccc(C)c1Oc1cn(C)c(=O)cc1-c1cn(C)c(=O)c2[nH]c(-c3cn(C(C)C)nc3C)cc12 [Example 6, 4-(5-(2,6-dimethylphenoxy)-1-methyl-2-oxo-1,2-dihydropyridin-4-yl)-2-(1-isopropyl-3-methyl-1H-pyrazol-4-yl)-6-methyl-1,6-dihydro-7H-pyrrolo[2,3-c]pyridin-7-one]
